This note sets out measurements from patent publication EP3577173B1, “COMPOSITIONS CONTAINING FATTY ACID ESTERS OF VEGETABLE ORIGIN AS SOLVENTS” (Benessere, Vincenzo, priority 2017, dated 2018).

A short description of series [1]: Dissolution time of resin in solvent until the solution is clear (base for coating materials). The class given is physicochemical. To be noted: magnetic stirring, time when solution becomes clear and no deposit is found. How it is done:
Three commercial solvents (D100, mineral oil; 7129, 2-ethylhexyl palmitate; PARYOL TMC 810T, caprylic/capric triglyceride) and the solvents described in examples 1-4 were used. The resins of Example 1 and the chosen solvent were placed on a heating plate under magnetic stirring at 80 °C for one hour, and then allowed to cool to ambient temperature for 24 hrs. Table 1. ROSIN MODIFIED ESTER RESIN BASED PAINTS

Series [2] in a line: Dynamic light scattering of 5% by weight resin solution (solvent power). Type of series: physicochemical. To be noted: DLS. The text has this:
A first assessment of the higher solvent power of pelargonic acid esters with respect to the classical solvents can be performed by means of the analysis of the data obtained with the dynamic light scattering technique (SMD 6000 Laser Quantum apparatus,50 mW source of light beam at 532.5 nm) carried out on the solution at 5% by weight of modified phenolic (Table 3) and Maleic (Table 4)Resin, solubilized with traditional mineral solvents (base mineral oilD100), traditional vegetal oil (RADIA 7129) and the solvents of the present invention. The DLS technique (Dynamic Light Scattering) allows to monitor the intensity depending on time of the light scattered by an object into a solution. The speed of fluctuation of the light intensity depends on the speed with which the element capable of generating such scattering moves into a solution; the latter is described by the diffusion coefficient D, which is related to the size of the particles into the solution, in particular to the hydrodynamic radius RI of a ball moving in a solvent having a viscosity η, according to the Stokes-Einstein equation: D = (kT)/(6πηRi) [formula] where k is the Boltzmann constant and T is the temperature.
The measurements of the dynamic light scattering allowed to evaluate the capacity of different solvents, used to disperse the two resins, to generate sub-micrometric aggregates: K16 and a maleic resin. This dispersion capacity is linked to the solvent capacity of individual substances. The lower is the size of aggregates, the better is the solvent power for the solute concerned. In the case of the present invention, the solvent consists of the compounds of general formula (I) and solutes are modified PHENOLIC RESINS and MALEIC RESINS. In this case, the smaller is the hydrodynamic radius, better is the solvation degree of the resin by the solvent, which is therefore better than solvents giving a lower solvation degree, and therefore a larger hydrodynamic radius relative to the same resins. The hydrodynamic radii found by DLS for the solvents used by us are the lowest compared to the other commercially available solventsstudied. The high solvent power, therefore confirmed by the hydrodynamic radius, has a huge impact on the paint final properties and on the production mode. The final properties are affected by the fact that the higher solvent power of our compounds allows to dissolve the rosin and maleic resins up to 70% by weight, and therefore allow to produce paints having a high degree of gloss and very high surface resistance, since these latter properties depend on the amount of resin that a solvent can dissolve to form a paint. In addition, the production mode of the paint was performed at 80°C instead of 200°C because our compounds are more solvent with respect to the commercially available ones and need a lower operating temperature in order to dissolve completely and appropriately the resins concerned.
Actually, in samples having a good resin dispersion, which are clear, particles with sub-micrometric size (2-300 nm) are obtained; sizes are associated with the presence of more or less large aggregates. In the extreme cases of precipitation phenomena (> 1000 nm), the sample appears cloudy, and this is associated with a very poor resin dispersion.
In our case, from the data shown in Tables 1 and 2 of Example 3 it can be clearly seen that […] for the solvents of the invention, and therefore the size of the aggregates, is considerably lower than in solvents commercially available at present for dispersing modified phenolic resins and maleic resins. […] A 5% w/w modified synthetic phenolic resin was used for the mixtures to be tested by DLS obtained industrially by esterification of rosin with pentaerythritol, and subsequent polymerization with phenol, trade name SIRIUS XVI, supplied by YSER. The Maleic Resin used is Perseus I supplied by Yser. Table 3. ROSIN MODIFIED ESTER RESIN

Setting [3] is: 5% w/w Perseus I resin in the solvent.
Where [4] appears, read: 5% w/w SIRIUS XVI resin in the solvent.

Where only a bound is given, the exact number is not on record here.

For `CCCCCC(=O)OCCCC` [CAOBu, butyl caproate], the “45% resin (dissolution time at 80 °C, min)” value (“45% resin” for short) in series [1] (maleic resin) and in series [1] (rosin modified ester resin) was more than 60 min in each case. Further, the “55% resin (dissolution time at 80 °C, min)” value (from here on “55% resin”) in series [1] (maleic resin) is recorded as “A clear solution is not obtained after 4 hrs”; in series [1] (rosin modified ester resin), “A clear solution is not obtained after 2 hrs”.
Consider `CCCCCCOC(=O)CCCCC` [CAOEs, hexyl caproate], for which, in series [1] (maleic resin), the “45% resin” value is on record as more than 60 min and the “55% resin” value is given as “A clear solution is not obtained after 4 hrs”. For the same molecule, in series [1] (rosin modified ester resin), the “45% resin” value was more than 60 min and the “55% resin” value was “A clear solution is not obtained after 2 hrs”.
Regarding `CCCCCC(=O)OCC(CC)CCCC` (stereo not shown) [CAOEtEs, 2-ethyl-hexyl caproate], in series [1] (rosin modified ester resin), the “45% resin” value is more than 60 min and the “55% resin” value is “A clear solution is not obtained after 2 hrs”.
For the molecule `CCCCCCCCOC(=O)CCCCC` [CAOOt, octyl caproate], the “45% resin” value in series [1] (maleic resin) and in series [1] (rosin modified ester resin) was more than 60 min each time. Moreover, the “55% resin” value in series [1] (maleic resin) is listed as “A clear solution is not obtained after 4 hrs”; in series [1] (rosin modified ester resin), “A clear solution is not obtained after 2 hrs”.
Turning to `CCCCCC(=O)OC(C)C` [CAOiPr, isopropyl caproate], the “45% resin” value in series [1] (maleic resin) and in series [1] (rosin modified ester resin) was more than 60 min throughout. In addition, the “55% resin” value in series [1] (maleic resin) is “A clear solution is not obtained after 4 hrs”; in series [1] (rosin modified ester resin), “A clear solution is not obtained after 2 hrs”.
As for `CCCCCCCCCCCC(=O)OCCCC` [LAOBu, butyl laurate], in series [1] (maleic resin), the “45% resin” value is listed as more than 60 min and the “55% resin” value is given as “A clear solution is not obtained after 2 hrs”. For the same molecule, in series [1] (rosin modified ester resin), the “45% resin” value is listed as more than 60 min and the “55% resin” value is reported as “A clear solution is not obtained after 2 hrs”.
On to `CCCCCCCCCCCC(=O)OCCCCCC` [LAOEs, hexyl laurate], for which, in series [1] (maleic resin), the “45% resin” value is more than 60 min and the “55% resin” value was “A clear solution is not obtained after 2 hrs”. In series [1] (rosin modified ester resin), the “45% resin” value is on record as more than 60 min and the “55% resin” value was “A clear solution is not obtained after 2 hrs”.
Consider `CCCCCCCCCCCC(=O)OCC(CC)CCCC` (stereo not shown) [LAOEtEs, 2-ethyl-hexyl laurate], for which, in series [1] (maleic resin), the “45% resin” value is recorded as more than 60 min and the “55% resin” value is “A clear solution is not obtained after 2 hrs”. Besides, in series [1] (rosin modified ester resin), the “45% resin” value is more than 60 min and the “55% resin” value is listed as “A clear solution is not obtained after 2 hrs”.
Regarding `CCCCCCCCCCCC(=O)OCCCCCCCC` [LAOOt, octyl laurate], the “45% resin” value in series [1] (maleic resin) and in series [1] (rosin modified ester resin) was more than 60 min in each case. Also, the “55% resin” value in series [1] (maleic resin) and in series [1] (rosin modified ester resin) was “A clear solution is not obtained after 2 hrs” throughout.
For `CCCCCCCCCCCC(=O)OC(C)C` [LAOiPr, isopropyl laurate], in series [1] (maleic resin), the “45% resin” value is given as more than 60 min and the “55% resin” value is on record as “A clear solution is not obtained after 2 hrs”. Besides, in series [1] (rosin modified ester resin), the “45% resin” value is on record as more than 60 min and the “55% resin” value is listed as “A clear solution is not obtained after 2 hrs”.
With `CCCCCCCCC(=O)OCCCC` [PAOBu, butylpelargonate], in series [2] (setting [3]), the “Hydrodynamic radius (nm)” value is reported as 2.34 ± 0.8 nm and the Polydispersity index is 0.70±0.06. In addition, in series [2] (setting [4]), the “Hydrodynamic radius (nm)” value is reported as 12.9 ± 0.4 nm and the Polydispersity index was determined as 0.71±0.06. Moreover, in series [1] (maleic resin), the “45% resin” value came to 15 min and the “55% resin” value is 20 min. In series [1] (rosin modified ester resin), the “45% resin” value is given as 13 min and the “55% resin” value turned out to be 14 min.
With `CCCCCCCCC(=O)OCC(CC)CCCC` (stereo not shown) [PAOEtEs, 2-ethyl-hexyl pelargonate], the “45% resin” value is reported as 60 min in series [1] (maleic resin) and 50 min in series [1] (rosin modified ester resin). The “55% resin” value in series [1] (maleic resin) and in series [1] (rosin modified ester resin) was “Clear solution” each time.
On to `CCCCCCCCC(=O)OC` [PAOMe, methylpelargonate], for which the “Hydrodynamic radius (nm)” value is recorded as 1.7±0.6 nm in series [2] (setting [3]) and 8.9 ± 0.9 nm in series [2] (setting [4]). For the same molecule, the Polydispersity index was found to be 0.90±0.42 in series [2] (setting [3]) and 0.76±0.11 in series [2] (setting [4]). Besides, the results for the “45% resin” value in series [1] (maleic resin) and in series [1] (rosin modified ester resin) were 10 min and 15 min, respectively. In addition, the figures for the “55% resin” value in series [1] (maleic resin) and in series [1] (rosin modified ester resin) were 15 min and 16 min, respectively.
For `CCCCCCCCC(=O)OC(C)C` [PAOiPr, isopropyl pelargonate], in series [2] (setting [3]), the “Hydrodynamic radius (nm)” value was 2.74±0.11 nm and the Polydispersity index stood at 1.0±0.3. Moreover, in series [2] (setting [4]), the “Hydrodynamic radius (nm)” value was 9.2 ± 1.3 nm and the Polydispersity index was found to be 0.64±0.14. In addition, in series [1] (maleic resin), the “45% resin” value came out at 10 min and the “55% resin” value was 15 min. Also, in series [1] (rosin modified ester resin), the “45% resin” value was 13 min and the “55% resin” value stood at 15 min.
Regarding `CCCCCCCCCCCCCCCC(=O)OCC(CC)CCCC` (stereo not shown) [Solvent 7129, 2-ethylhexyl palmitate], the aggregate sizes entry in series [2] (maleic resin dispersed in the solvent) and in series [2] (modified phenolic resin dispersed in the solvent) was “exceeding the limit of detectability by DLS” each time. In addition, the “45% resin” value in series [1] (rosin modified ester resin) is given as more than 60 min. The “55% resin” value in series [1] (rosin modified ester resin) is reported as “A clear solution is not obtained after 2 hrs”.
